# ChEMBL document CHEMBL1148610, “Novel potential anticancer naphthyl phosphoramidates of BVdU: separation of diastereoisomers and assignment of the absolute configuration of the phosphorus center” (J Med Chem, 2006)
# How the values were obtained:
# Type in all cases: functional, cell-based
# [1] = system: MDA-MB-231; assay: Cytostatic activity against human breast cancer MDA-MB-231 cell line
# [2] = system: PC-3; assay: Cytostatic activity against human prostate cancer PC3 cell line
# [3] = system: T-24; assay: Cytostatic activity against human bladder cancer T24 cell line
SMILES,EC50 [1],EC50 [2],EC50 [3]
CCC(C)[C@H](NP(=O)(OC[C@H]1O[C@@H](n2cc(/C=C/Br)c(=O)[nH]c2=O)C[C@@H]1O)Oc1cccc2ccccc12)C(=O)OC (stereo partly specified),1.5 µM,6.9 µM,–
CCC(C)[C@H](NP(=O)(OC[C@H]1O[C@@H](n2cc(/C=C/Br)c(=O)[nH]c2=O)C[C@@H]1O)Oc1cccc2ccccc12)C(=O)OCc1ccccc1 (stereo partly specified),130 µM,1.4 µM,–
C[C@@H](NP(=O)(OCC1OC(n2cc(/C=C/Br)c(=O)[nH]c2=O)CC1O)Oc1cccc2ccccc12)C(=O)OCc1ccccc1 (stereo partly specified),6.3 µM,6.1 µM,2.8 µM
O=C(OCc1ccccc1)[C@H](Cc1ccccc1)NP(=O)(OCC1OC(n2cc(/C=C/Br)c(=O)[nH]c2=O)CC1O)Oc1cccc2ccccc12 (stereo partly specified),1.96 µM,5.8 µM,269 µM
COC(=O)[C@H](Cc1ccccc1)NP(=O)(OCC1OC(n2cc(/C=C/Br)c(=O)[nH]c2=O)CC1O)Oc1cccc2ccccc12 (stereo partly specified),8.5 µM,10.2 µM,5.3 µM
COC(=O)[C@H](C(C)C)P(=O)(OCC1OC(n2cc(/C=C/Br)c(=O)[nH]c2=O)CC1O)Oc1cccc2ccccc12 (stereo partly specified),14.8 µM,15.8 µM,43.5 µM
C[C@H](NP(=O)(O)Oc1cccc2ccccc12)C(=O)OCc1ccccc1,15.2 µM,1.7 µM,–
CC(C)(NP(=O)(OC[C@H]1O[C@@H](n2cc(/C=C/Br)c(=O)[nH]c2=O)C[C@@H]1O)Oc1cccc2ccccc12)C(=O)OCc1ccccc1 (stereo partly specified),2.7 µM,1.5 µM,–
COC(=O)C(C)(C)NP(=O)(OC[C@H]1O[C@@H](n2cc(/C=C/Br)c(=O)[nH]c2=O)C[C@@H]1O)Oc1cccc2ccccc12 (stereo partly specified),0.32 µM,65.9 µM,–
COC(=O)[C@@H](NP(=O)(OCC1OC(n2cc(/C=C/Br)c(=O)[nH]c2=O)CC1O)Oc1cccc2ccccc12)c1ccccc1 (stereo partly specified),105 µM,1.7 µM,–
CC(C)[C@H](NP(=O)(OCC1OC(n2cc(/C=C/Br)c(=O)[nH]c2=O)CC1O)Oc1cccc2ccccc12)C(=O)OCc1ccccc1 (stereo partly specified),5.9 µM,8.3 µM,12.7 µM
COC(=O)[C@H](CCSC)NP(=O)(OCC1OC(n2cc(/C=C/Br)c(=O)[nH]c2=O)CC1O)Oc1cccc2ccccc12 (stereo partly specified),28.1 µM,44.6 µM,19.6 µM
COC(=O)[C@@H]1CCCN1P(=O)(OCC1OC(n2cc(/C=C/Br)c(=O)[nH]c2=O)CC1O)Oc1cccc2ccccc12 (stereo partly specified),6.5 µM,10.5 µM,0.4 µM
C[C@H](NP(=O)(OCC1OC(n2cc(/C=C/Br)c(=O)[nH]c2=O)CC1O)Oc1cccc2ccccc12)C(=O)OC(C)(C)C (stereo partly specified),4.8 µM,11 µM,4 µM
